Laboratory results reported in patent publication US20170232083A1, “METHODS OF DIAGNOSIS AND TREATMENT OF CELIAC DISEASE IN CHILDREN” (priority 2014, published 2017).

System: PBMC (polyclonal gluten-specific T cells) of paediatric and adult CD patients
Experiment: IFN-γ ELISpot of PBMC after 3 day oral wheat challenge (SFU, % of maximal peptide response, dominance scores, EC50; Examples 5-6)
Type: cell-based, human
Settings: for Cross-reactive T cell response: following wheat challenge; for IFN-γ ELISpot response: after oral wheat challenge
[1] = subject I (3-5yrs/6-10yrs part)
[2] = subject J (3-5yrs/6-10yrs part)
[3] = subject K (3-5yrs/6-10yrs part)
[4] = subject V (3-5yrs/6-10yrs part)
[5] = subject W (3-5yrs/6-10yrs part)
[6] = subject Y (3-5yrs/6-10yrs part)
[7] = subject five (3-5yrs/6-10yrs part)
[8] = subject seven (3-5yrs/6-10yrs part)
[9] = subject six (3-5yrs/6-10yrs part)
[10] = subject ten (3-5yrs/6-10yrs part)
[11] = subject two (3-5yrs/6-10yrs part)

QPFPQPEQPFSWQ
Cross-reactive T cell response (subject A, 11-17yrs): 0 SFU
Significant response as a percentage of maximal peptide SFU (subject D, 11-17yrs): ′′′ (41-70% = ′′′)
Cross-reactive T cell response (subject D, 11-17yrs): 16 SFU
Significant response as a percentage of maximal peptide SFU (subject E, 11-17yrs): ′ (11-20% = ′)
Cross-reactive T cell response (subject E, 11-17yrs): 34 SFU
Significant response as a percentage of maximal peptide SFU (subject F, 11-17yrs): ′ (11-20% = ′)
Cross-reactive T cell response (subject F, 11-17yrs): 19 SFU
Cross-reactive T cell response (subject G, 11-17yrs): 6 SFU
Cross-reactive T cell response (subject H): 1 SFU
Cross-reactive T cell response [1]: 2 SFU
Significant response as a percentage of maximal peptide SFU (subject J): ′′′ (41-70% = ′′′)
Cross-reactive T cell response [2]: 79 SFU
Significant response as a percentage of maximal peptide SFU (subject K): ′′ (21-40% = ′′)
Cross-reactive T cell response [3]: 20 SFU
Cross-reactive T cell response (subject P, 11-17yrs): 14 SFU
Significant response as a percentage of maximal peptide SFU (subject Q, 11-17yrs): ′′ (21-40% = ′′)
Cross-reactive T cell response (subject Q, 11-17yrs): 29 SFU
Significant response as a percentage of maximal peptide SFU (subject T, 11-17yrs): ′′′ (41-70% = ′′′)
Cross-reactive T cell response (subject T, 11-17yrs): 41 SFU
Significant response as a percentage of maximal peptide SFU (subject U, 11-17yrs): ′′ (21-40% = ′′)
Cross-reactive T cell response (subject U, 11-17yrs): 18 SFU
Significant response as a percentage of maximal peptide SFU (subject V): + (>70% = +)
Cross-reactive T cell response [4]: 25 SFU
Cross-reactive T cell response [5]: 3 SFU
Cross-reactive T cell response [6]: 8 SFU
Significant response as a percentage of maximal peptide SFU (subject five): + (>70% = +)
Cross-reactive T cell response [7]: 42 SFU
Cross-reactive T cell response (subject nine, 11-17yrs): 1 SFU
Cross-reactive T cell response [8]: 6 SFU
Cross-reactive T cell response [9]: 8 SFU
Cross-reactive T cell response [10]: 0 SFU
Significant response as a percentage of maximal peptide SFU (subject two): ′′ (21-40% = ′′)
Cross-reactive T cell response [11]: 26 SFU

QPFPQPEQPIPQQ
Cross-reactive T cell response (subject A, 11-17yrs): 3 SFU
Significant response as a percentage of maximal peptide SFU (subject D, 11-17yrs): + (>70% = +)
Cross-reactive T cell response (subject D, 11-17yrs): 29 SFU
Significant response as a percentage of maximal peptide SFU (subject E, 11-17yrs): ′′ (21-40% = ′′)
Cross-reactive T cell response (subject E, 11-17yrs): 87 SFU
Significant response as a percentage of maximal peptide SFU (subject F, 11-17yrs): ′′ (21-40% = ′′)
Cross-reactive T cell response (subject F, 11-17yrs): 62 SFU
Cross-reactive T cell response (subject G, 11-17yrs): 4 SFU
Cross-reactive T cell response (subject H): 1 SFU
Cross-reactive T cell response [1]: 3 SFU
Significant response as a percentage of maximal peptide SFU (subject J): ′′′ (41-70% = ′′′)
Cross-reactive T cell response [2]: 132 SFU
Significant response as a percentage of maximal peptide SFU (subject K): ′ (11-20% = ′)
Cross-reactive T cell response [3]: 11 SFU
Significant response as a percentage of maximal peptide SFU (subject P, 11-17yrs): + (>70% = +)
Cross-reactive T cell response (subject P, 11-17yrs): 48 SFU
Significant response as a percentage of maximal peptide SFU (subject Q, 11-17yrs): ′′′ (41-70% = ′′′)
Cross-reactive T cell response (subject Q, 11-17yrs): 64 SFU
Significant response as a percentage of maximal peptide SFU (subject T, 11-17yrs): + (>70% = +)
Cross-reactive T cell response (subject T, 11-17yrs): 87 SFU
Significant response as a percentage of maximal peptide SFU (subject U, 11-17yrs): ′′′ (41-70% = ′′′)
Cross-reactive T cell response (subject U, 11-17yrs): 41 SFU
Significant response as a percentage of maximal peptide SFU (subject V): ′′′ (41-70% = ′′′)
Cross-reactive T cell response [4]: 17 SFU
Cross-reactive T cell response [5]: 5 SFU
Cross-reactive T cell response [6]: 7 SFU
Significant response as a percentage of maximal peptide SFU (subject five): + (>70% = +)
Cross-reactive T cell response [7]: 44 SFU
Cross-reactive T cell response (subject nine, 11-17yrs): 1 SFU
Cross-reactive T cell response [8]: 7 SFU
Significant response as a percentage of maximal peptide SFU (subject six): + (>70% = +)
Cross-reactive T cell response [9]: 12 SFU
Cross-reactive T cell response [10]: 4 SFU
Significant response as a percentage of maximal peptide SFU (subject two): ′′ (21-40% = ′′)
Cross-reactive T cell response [11]: 24 SFU

QPFPQPEQPIPVQ
IFN-γ ELISpot response (patient A, 11-17 yrs, cut-off 10 SFU): 5 SFU
Significant response as percentage of maximal peptide SFU (patient D, max peptide 30.5 SFU): ′′′ (41-70% = ′′′)
IFN-γ ELISpot response (patient E, H, 11-17 yrs, cut-off 10 SFU): 76 SFU
Significant response as percentage of maximal peptide SFU (patient E, max peptide 224 SFU): ′′ (21-40% = ′′)
IFN-γ ELISpot response (patient F, 11-17 yrs, cut-off 10 SFU): 103 SFU
Significant response as percentage of maximal peptide SFU (patient F, max peptide 178 SFU): ′′′ (41-70% = ′′′)
IFN-γ ELISpot response (patient G, 11-17 yrs, cut-off 10 SFU): 3 SFU
IFN-γ ELISpot response (patient H (HLA-DQ2.5 homozygote), 3-5yrs, cut-off 10 SFU): 29 SFU
IFN-γ ELISpot response (patient H, 11-17 yrs, cut-off 10 SFU): 10 SFU
Significant response as percentage of maximal peptide SFU (patient H, max peptide 17 SFU): ′′′ (41-70% = ′′′)
IFN-γ ELISpot response (patient ID not given, 11-17 yrs, cut-off 10 SFU): 95 SFU
Significant response as percentage of maximal peptide SFU (patient J, max peptide 196 SFU): ′′′ (41-70% = ′′′)
Significant response as percentage of maximal peptide SFU (patient K, max peptide 53 SFU): ′ (11-20% = ′)
Significant response as percentage of maximal peptide SFU (patient M, max peptide 48 SFU): ′′′ (41-70% = ′′′)
IFN-γ ELISpot response (patient N, 3-5yrs, cut-off 10 SFU): 2 SFU
IFN-γ ELISpot response (patient P, 11-17 yrs, cut-off 21.6 SFU): 42 SFU
Significant response as percentage of maximal peptide SFU (patient P, max peptide 64 SFU): ′′′ (41-70% = ′′′)
IFN-γ ELISpot response (patient Q, 11-17 yrs, cut-off 10 SFU): 51 SFU
Significant response as percentage of maximal peptide SFU (patient Q, max peptide 97 SFU): ′′′ (41-70% = ′′′)
IFN-γ ELISpot response (patient U, H, 11-17 yrs, cut-off 10 SFU): 27 SFU
Significant response as percentage of maximal peptide SFU (patient U, max peptide 81 SFU): ′′ (21-40% = ′′)
IFN-γ ELISpot response (patient V, 6-10 yrs, cut-off 10 SFU): 27 SFU
Significant response as percentage of maximal peptide SFU (patient V, max peptide 35 SFU): + (>70% = +)
IFN-γ ELISpot response (patient Y, 6-10 yrs, cut-off 10 SFU): 9 SFU
IFN-γ ELISpot response (patient eleven, 6-10 yrs, cut-off 10 SFU): 9 SFU
Significant response as percentage of maximal peptide SFU (patient five, max peptide 48 SFU): + (>70% = +)
IFN-γ ELISpot response (patient four, 3-5yrs, cut-off 10 SFU): 10 SFU
Significant response as percentage of maximal peptide SFU (patient four, max peptide 44 SFU): ′′ (21-40% = ′′)
IFN-γ ELISpot response (patient seven, 6-10 yrs, cut-off 10.5 SFU): 9 SFU
IFN-γ ELISpot response (patient ten, 3-5yrs, cut-off 10 SFU): 11 SFU
Significant response as percentage of maximal peptide SFU (patient ten, max peptide 14.5 SFU): + (>70% = +)
IFN-γ ELISpot response (patient three, 6-10 yrs, cut-off 10.5 SFU): 126 SFU
IFN-γ ELISpot response (patient twelve, 11-17 yrs, cut-off 10 SFU): 20 SFU
IFN-γ ELISpot response (patient two, 3-5yrs, cut-off 10 SFU): 53 SFU
Significant response as percentage of maximal peptide SFU (patient two, max peptide 60 SFU): + (>70% = +)
